The results in this text go back to US8828992B2, “Substituted azole derivatives, pharmaceutical composition containing the derivatives, and method for treating Parkinson's disease using the same” (priority 2009, dated 2014).

Experiment [1] has as its system dopamine (DA) in the striata of MPTP-treated mice. The experiment in a line: Levels of dopamine in the striata of MPTP-treated mice (HPLC). Type of experiment: in vivo. The following applies: Mus musculus, po, 168 h, 10 mpk, 7 days after MPTP, read-out: Levels of dopamine (DA) in the striata, compared to a control group %. Here is the method:
(§1) A. MPTP (1-methyl-4-phenyl-1,2,3,6-tetrahydropyridine) and drug treatment MPTP (20 mg/kg, free base; Sigma, St. louis, Mo.) was administered to an 8 week old (20-25 g) male C57BL/6 test mouse intraperitoneally three times a day at the interval of 2 hours to construct a model (Breidert et al., 2002; Lichuan Yang, Shuei Sugama, Jason W. Chirichigno, Jason Gregorio, Stefan Lorenzl, Dong H. Shin, Susan E. Browne, Yoshinori Shimizu, Tong H. Joh, M. Flint Beal, l and David S. Alber. (2003) Minocycline Enhances MPTP Toxicity to Dopaminergic Neurons. J Neurosci Res. 74:278-285). In order to observe the protective effects of the compound as a candidate drug, the compound was dissolved in a solution containing 10% dimethylsulfoxide (DMSO), 10% Cremophor, and 40% polyethyleneglycol (PEG), […] treatment. Rasagiline as a control drug was also dissolved in the same solution, and the resulting solution was administered at the same doses in the same manner as above. A control group (Sham) in which MPTP was not administered was constructed by intraperitoneally administering saline solution to the group instead of MPTP in the same manner as above and orally administering the same solution 1 hour before and after PBS treatment.
The changes of contents of dopamine and dopamine metabolites in the striatum in accordance with administrations of MPTP and the drug were measured by high performance liquid chromatography (HPLC). At 7 days after administration of the drug, the animal was sacrificed by cervical vertebra dislocation and the brain tissues were immediately isolated from the animal. 0.5 ml of iced solution for HPLC analysis (0.1 M perchloric acid and 0.1 mM EDTA) was added to a striatum obtained from the isolated brain tissues, and an ultrasonic grinder was used to prepare a tissue homogenate. The tissue homogenate was centrifuged at 12,000 rpm for 15 minutes, and its supernatant was filtered through nitrocellulose membrane filter (0.2 um, Millipore). For HPLC analysis, uBondapak™ C18 column (4.6×150 mm, particle size 10 μm: Shisheido, Japan) was used, the flow rate of the mobile phase (0.07 M monobasic sodium phosphate), 1 mM sodium octasulfonic acid, 0.1 uM EDTA, 5% acetonitrile, pH 3.2) was maintained at 0.7 ml/min, and the electrode potential of the electrochemical detector (ICA-5000, Japan) was set at 700 mV.

Experiment [2] has as its system MPTP-induced mouse model. The experiment in a line: Tail suspension test in MPTP-induced mouse model of Parkinson's disease. The conditions noted are these: Mus musculus, 168 h; administration concentration 10 (10 mg/kg), oral, 7 days after MPTP; % of control group (Sham); read-out: Mobility (%). Type of experiment: in vivo. How it is done:
as §1
A tail suspension test was performed in order to measure the induction degree of behavioral dysfunctions in accordance with administration of MPTP and a drug. At 7 days after administration of the drug, a round stainless steel rod (width: 1 cm) was affixed to a cage (width: 16 cm, height: 40 cm) 35 cm above from the surface shielded by black wooden structures in the left and right sides to perform experiments. The time for which the animal moved for a total period of 6 minutes was measured in seconds to evaluate the drug action.
Mobility refers to an expression of the measurement of the time for which the animal moved with its tail hung high as a percentage compared to the measurement of a control group.

The target of experiment [3] is T1, Monoamineoxidase B type human-derived enzyme (Homo sapiens, UniProt P27338).
T1 sequence (P27338 1-520): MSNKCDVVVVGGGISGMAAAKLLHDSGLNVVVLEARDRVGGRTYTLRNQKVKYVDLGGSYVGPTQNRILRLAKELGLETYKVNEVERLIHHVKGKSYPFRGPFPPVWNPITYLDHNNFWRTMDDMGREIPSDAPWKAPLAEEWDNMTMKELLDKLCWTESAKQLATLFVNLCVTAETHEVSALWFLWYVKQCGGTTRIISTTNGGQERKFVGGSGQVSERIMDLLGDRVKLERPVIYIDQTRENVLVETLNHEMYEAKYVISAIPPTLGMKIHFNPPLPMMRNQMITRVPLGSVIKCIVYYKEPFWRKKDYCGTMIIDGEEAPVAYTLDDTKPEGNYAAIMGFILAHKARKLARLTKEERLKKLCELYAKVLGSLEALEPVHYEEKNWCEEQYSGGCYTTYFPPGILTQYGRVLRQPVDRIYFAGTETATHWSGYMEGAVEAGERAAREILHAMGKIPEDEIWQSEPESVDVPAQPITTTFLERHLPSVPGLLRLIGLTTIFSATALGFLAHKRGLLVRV
Put plainly: Inhibitory effects on the activity of MAO-B (Amplex Red fluorescence, benzylamine substrate). The conditions noted are these: read-out: Inhibitory effects (%) on the activity of MAO-B. Type of experiment: biochemical. The essentials:
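Human MAO-B, diluted 1:200 in 0.05 M sodium phosphate pH 7.4, was pre-incubated with compound for 30 min. It was then mixed 1:1 with working buffer holding 400 μM Amplex Red, 2 U/ml HRP and 2 mM benzylamine (working-buffer levels). Fluorescence (Ex 563/Em 587 nm) was read over 30 min.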

In experiment [4] the test system is dopamine (DA) in the striatum of a MPTP-treated mouse. The experiment in a line: Combined administration with Levodopa group: dopamine in the striatum of MPTP-treated mouse (HPLC). Type of experiment: in vivo. The conditions noted are these: compound 1 mg/kg PO co-administered with Levodopa group (Levodopa 50 mg/kg + Benzerazide 25 mg/kg IP); for Concentration of dopamine compared to a control group %, 1 hr: 1 hr after Levodopa; for Concentration of dopamine compared to a control group %, 3 hr: 3 hr after Levodopa. How it is done: MPTP (20 mg/kg, free base; Sigma, St. louis, Mo.) was administered to an 8 week old (20-25 g) male C57BL/6 test mouse intraperitoneally at the interval of 2 hours to construct a model.
In order to observe the effects of combined administration of a compound of the present invention and Levodopa, the compound of the present invention was dissolved in a solution containing 0.02 ml of dimethylsulfoxide (DMSO), 0.02 ml of Cremophor, 0.08 ml of polyethyleneglycol (PEG), and 0.08 ml of physiological saline. The resulting solution was orally administered at doses of 1 mg/kg one week after the MPTP treatment, and a Levodopa group containing Levodopa at 50 mg/kg and Benzerazide at 25 mg/kg was intraperitoneally administered 1 hour later.
A single administration of the Levodopa group in the following Table 4 indicates values resulting from a MPTP (toxin) treatment followed by an administration of the Levodopa group compared to the treatment results of a Levodopa single administration group of Levodopa and Benzerazide.
At 1 hour and 3 hours after administration of Levodopa, the animals were sacrificed by cervical vertebra dislocation and the brain tissues were immediately isolated from the animals. 0.5 me of iced solution for HPLC analysis (0.1 M perchloric acid and 0.1 mM EDTA) was added to a striatum obtained from the isolated brain tissues, and an ultrasonic grinder was used to prepare a tissue homogenate. The tissue homogenate was centrifuged at 12,000 rpm for 15 minutes, and its supernatant was filtered through nitrocellulose membrane filter (0.2 um, Millipore). For HPLC analysis, uBondapak™ C18 column (4.6×150 mm, particle size 10 μm: Shisheido, Japan) was used, the flow rate of the mobile phase (0.07 M monobasic sodium phosphate, 1 mM sodium octasulfonic acid, 0.1 uM EDTA, 5% acetonitrile, pH 3.2) was maintained at 0.5 me/min, and the electrode potential of the electrochemical detector (CouloChem III, ESA, Japan) was set at 350 mV.

Where two headings read alike, the source gives them in different places.

For the molecule `NC(=O)OCc1cc(-c2ccc(OCc3ccccn3)cc2)no1` [Example 65, Carbamic acid 3-[4-(pyridin-2-ylmethoxy)-phenyl]-isoxazol-5-ylmethyl ester], the response vs control in vivo at 10 mg/kg in experiment [1] was 74.9%; in experiment [2] it was 94.1%. The inhibition at 0.01 µM in experiment [3] stood at 89.9%.
On to `Fc1cccc(COc2ccc(-c3cc(Cn4ccnc4)on3)cc2)c1` [Example 142, 3-[4-(3-fluoro-benzyloxy)-phenyl]-5-imidazol-1-ylmethyl-isoxazole], for which, in experiment [4], the “Concentration of dopamine compared to a control group %, 1 hr” value (shortened to “Concentration … to a control group %, 1 hr”) is 174.5% and the “Concentration of dopamine compared to a control group %, 3 hr” value (from here on “Concentration … to a control group %, 3 hr”) is listed as 65.5%. For the same molecule, the response vs control in vivo at 10 mg/kg in experiment [2] came to 101%. Moreover, the inhibition at 0.01 µM in experiment [3] (treatment concentration 10 nM) stood at 89.5%.
In the same order, the values of `NC(=O)OCc1cc(-c2ccc(NCc3ccc(F)c(F)c3)cc2)no1` [Example 84, Carbamic acid 3-[4-(3,4-difluoro-benzylamino)-phenyl]-isoxazol-5-ylmethyl ester] are 153.7%, 144.3%, 97.7% and 88.5%.
Consider `NC(=O)OCc1cc(-c2ccc(OCc3ccccc3)cc2)ns1` [Example 3, carbamic acid 3-(4-benzyloxy-phenyl)-isothiazol-5-ylmethyl ester], for which, in experiment [4], the “Concentration … to a control group %, 1 hr” value was 173.43% and the “Concentration … to a control group %, 3 hr” value is 39.3%. Besides, in experiment [2], the response vs control in vivo at 10 mg/kg worked out at 70.3%. Moreover, the inhibition at 0.01 µM in experiment [3] is 95.2%.
Regarding `NC(=O)OCc1cc(-c2ccc(OCc3ccncc3)cc2)no1` [Example 67, Carbamic acid 3-[4-(pyridin-4-ylmethoxy)-phenyl]-isoxazol-5-ylmethyl ester], the response vs control in vivo at 10 mg/kg was 80.7% in experiment [1] and 88.9% in experiment [2]. The inhibition at 0.01 µM in experiment [3] amounted to 94.2%.
`NC(=O)OCc1cc(-c2ccc(OCc3cccc(C=NO)c3)cc2)no1` [Example 38, carbamic acid 3-{4-[3-(hydroxyimino-methyl)-benzyloxy]-phenyl}-isoxazol-5-ylmethyl ester]: the response vs control in vivo at 10 mg/kg in experiment [1] amounted to 52.9%; in experiment [2] it was 73%. Moreover, the inhibition at 0.01 µM in experiment [3] (treatment concentration 10 nM) worked out at 91.7%.
Turning to `NC(=O)OCc1cc(-c2ccc(OCc3cccc(F)c3)cc2)no1` [Example 12, carbamic acid 3-[4-(3-fluoro-benzyloxy)-phenyl]-isoxazol-5-ylmethyl ester], the response vs control in vivo at 10 mg/kg in experiment [1] was found to be 78.8%; in experiment [2] it was 85.3%. Moreover, in experiment [3] (treatment concentration 10 nM), the inhibition at 0.01 µM came out at 94.1%.
Regarding `NC(=O)OCc1cc(-c2ccc(OCn3nnc4ccccc43)cc2)no1` [Example 71, Carbamic acid 3-[4-(benzotriazol-1-ylmethoxy)-phenyl]-isoxazol-5-ylmethyl ester], the response vs control in vivo at 10 mg/kg in experiment [1] worked out at 41.1%. Moreover, the inhibition at 0.01 µM in experiment [3] (treatment concentration 10 nM) came to 56%.
`NC(=O)OCc1cc(-c2ccc(OCc3c(F)cccc3F)cc2)no1` [Example 14, carbamic acid 3-[4-(2,6-difluoro-benzyloxy)-phenyl]-isoxazol-5-ylmethyl ester]: in experiment [2], the response vs control in vivo at 10 mg/kg turned out to be 75.3%. In addition, in experiment [3] (treatment concentration 10 nM), the inhibition at 0.01 µM stood at 96%.
With `NC(=O)OCc1cc(-c2ccc(NCc3ccc(F)cc3F)cc2)no1` [Example 81, Carbamic acid 3-[4-(2,4-difluoro-benzylamino)-phenyl]-isoxazol-5-ylmethyl ester], the response vs control in vivo at 10 mg/kg in experiment [2] is 72.6%. In addition, the inhibition at 0.01 µM in experiment [3] (treatment concentration 10 nM) amounted to 91.4%.
In the same order, the values of `c1ccc(COc2ccc(-c3cc(CN4CCCC4)on3)cc2)cc1` [Example 148, 3-(4-benzyloxy-phenyl)-5-pyrrolidin-1-ylmethyl-isoxazole] are 95.9% and 79%.
As to `NC(=O)OCc1cc(-c2ccc(OCSC(F)(F)F)cc2)no1` [Example 58, carbamic acid 3-(4-trifluoromethylsulfanylmethoxy-phenyl)-isoxazol-5-ylmethyl ester], the response vs control in vivo at 10 mg/kg in experiment [2] was 98.9%. The inhibition at 0.01 µM in experiment [3] was found to be 88.1%.
`Cc1noc(C)c1COc1ccc(-c2cc(COC(N)=O)on2)cc1` [Example 72, carbamic acid 3-[4-(3,5-dimethyl-isoxazol-4-ylmethoxy)-phenyl]-isoxazol-5-ylmethyl ester]: the response vs control in vivo at 10 mg/kg in experiment [2] worked out at 91.4%. The inhibition at 0.01 µM in experiment [3] (treatment concentration 10 nM) worked out at 87.9%.
As to `NC(=O)OCc1cc(-c2ccc(NCc3ccccc3)cc2)no1` [Example 74, Carbamic acid 3-(4-benzylamino-phenyl)-isoxazol-5-ylmethyl ester], in experiment [4], the “Concentration … to a control group %, 1 hr” value is 153.7% and the “Concentration … to a control group %, 3 hr” value stood at 74.7%. Moreover, the response vs control in vivo at 10 mg/kg in experiment [2] was determined as 96.9%. For the same molecule, the inhibition at 0.01 µM in experiment [3] was determined as 84.5%.
As for `NC(=O)OCc1cc(-c2ccc(NCc3c(F)cccc3F)cc2)no1` [Example 79, Carbamic acid 3-[4-(2,6-difluoro-benzylamino)-phenyl]-isoxazol-5-ylmethyl ester], in experiment [4], the “Concentration … to a control group %, 1 hr” value amounted to 87.6% and the “Concentration … to a control group %, 3 hr” value amounted to 115.2%. Also, in experiment [2], the response vs control in vivo at 10 mg/kg is 99.4%. The inhibition at 0.01 µM in experiment [3] (treatment concentration 10 nM) is 84.6%.
